Results taken from US20180252736A1, “CB2 RECEPTOR INTERNALIZATION” (Arena Pharmaceuticals, Inc., priority 2015, published 2018).
pEC50: −log10 of the molar value. “Also recorded” adds a separate entry of the source.

Assays:
[1] = target: T1, hCB2 (Homo sapiens, UniProt P34972); details: cited from earlier work
[2] = system: CB2 receptor over CB1 receptor; details: Eur. Urol. 2010 FIG. 2a; cited from earlier work
[3] = target: CB1 (Homo sapiens, UniProt P21554); details: read-out: potency in GTP-γS binding assays, CB1 receptor; cited from earlier work
Chain of CB1 (P21554 whole entry): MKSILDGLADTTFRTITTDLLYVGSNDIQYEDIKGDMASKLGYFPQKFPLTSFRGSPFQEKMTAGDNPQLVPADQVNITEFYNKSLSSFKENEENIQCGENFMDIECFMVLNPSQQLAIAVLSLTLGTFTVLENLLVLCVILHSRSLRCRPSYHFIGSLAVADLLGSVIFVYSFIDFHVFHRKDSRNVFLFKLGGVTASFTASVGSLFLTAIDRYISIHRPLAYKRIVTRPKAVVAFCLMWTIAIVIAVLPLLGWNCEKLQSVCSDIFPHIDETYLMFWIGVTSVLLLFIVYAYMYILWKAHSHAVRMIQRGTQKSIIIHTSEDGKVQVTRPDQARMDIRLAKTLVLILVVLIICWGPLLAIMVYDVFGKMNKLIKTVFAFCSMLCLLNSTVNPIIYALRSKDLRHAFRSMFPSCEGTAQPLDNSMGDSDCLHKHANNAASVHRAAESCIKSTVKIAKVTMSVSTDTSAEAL

[4] = target: T2, rat CB2 receptor (Rattus norvegicus, UniProt Q9QZN9); experiment: CB2 receptor internalization assay (conventional fluorescence microscopy); assay type: cell-based; design: expressed in transfected cells; details: for receptor internalization: FIG. 10 comparison; for receptor internalization efficacy relative to CP55,940, rat CB2: fluorescence microscopy
T2 sequence (Q9QZN9 1-360): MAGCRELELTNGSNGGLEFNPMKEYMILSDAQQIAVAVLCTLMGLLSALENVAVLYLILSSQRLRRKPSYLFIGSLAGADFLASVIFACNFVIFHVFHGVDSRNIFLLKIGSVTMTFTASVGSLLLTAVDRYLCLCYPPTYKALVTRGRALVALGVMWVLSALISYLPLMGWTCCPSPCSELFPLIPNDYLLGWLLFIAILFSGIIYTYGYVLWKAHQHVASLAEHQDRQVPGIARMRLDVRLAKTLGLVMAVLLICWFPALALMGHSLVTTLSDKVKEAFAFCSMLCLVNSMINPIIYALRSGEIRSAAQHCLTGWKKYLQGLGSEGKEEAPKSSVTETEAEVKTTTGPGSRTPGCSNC
Experimental: (§1) Receptor internalization assays for the CB2 receptor were performed using a high content imaging system (e.g., IN Cell Analyzer, GE Healthcare Life Sciences, Pittsburgh, Pa.), or by conventional fluorescence microscopy with accessory image analysis software.
[…]. On the day of the assay, growth media was removed from the cell plate and replaced with 25 μL pre-warmed RPMI media. Additionally, 25 μL of pre-warmed RPMI media containing a fluorescent nuclear stain (Hoescht 33342 dye (1:500 dilution); Catalog #H-1399, Invitrogen,) and fluorophore-labeled antibody (Alexa-488 anti-HA monoclonal antibody (1:50 dilution); Catalog #A-21287, Invitrogen, Waltham, Mass.) was added to the cell plate. Test compounds or CP55,940 dissolved in DMSO were serially diluted in DMSO and then further diluted in RPMI to achieve 3× concentrations in 0.5% DMSO. Aliquots (25 μL) of diluted test compounds were added to assay plates, which were then incubated in a water bath at 37° C. for 1 hour. Compound containing media was removed at the end of the treatment period by inversion of the plate. The assay plate was washed twice with PBS (150 μL/well) and the cells were then fixed with 2% formaldehyde/PBS solution for 10 minutes at room temperature. Fluorescence microscopy images were captured for each well on the plate (minimum of 6 per well). The internalization of anti-HA antibody-labeled CB2 receptors results in redistribution of fluorescence from the cell surface to intracellular endosomes, which appear as punctate fluorescent granules within the cell. Quantification of receptor internalization was performed by measuring the Alexa-488 anti-HA monoclonal antibody-stained intracellular granule fluorescence intensities normalized per cell number in each well. Dose-response curves were generated using a minimum of 8 different test concentrations and triplicate determinations were made at each test concentration. Assay performance was monitored by inclusion of a standard CB2 reference agonist such as CP55,940 and agonist internalization efficacies were reported relative to that of the reference agonist.

[5] = system: MIA-induced osteoarthritis in male Sprague Dawley rats; experiment: Osteoarthritis pain model (MIA); assay type: in vivo, rat; details: for in vivo efficacy over time in the osteoarthritis pain model: oral dosing; for time following dosing at which in vivo efficacy was lost / time of peak efficacy following dosing / time following dosing up to which in vivo efficacy was maintained: osteoarthritis pain model
From the text: Injection of monosodium iodoacetate (MIA) into a joint (J Rheumatol 14:130-1, 1987) inhibits the activity of glyceraldehyde-3-phosphate dehydrogenase in chondrocytes, resulting in disruption of glycolysis and eventually in cell death. The progressive loss of chondrocytes results in histological and morphological changes of the articular cartilage, closely resembling those seen in osteoarthritis patients.
Osteoarthritis was induced in 200 g male Sprague Dawley rats. After brief anesthesia by isoflurane, rats received a single intra-articular injection of MIA (2 mg) (Catalog #19148, Sigma Aldrich, Saint Louis, Mo.) dissolved in 0.9% sterile saline in a 50 μL volume administered through the patella ligament into the joint space of the left knee with a 30 G needle. Following injection, animals were allowed to recover from anesthesia before being returned to the main housing vivarium.
Typically during disease progression, there is an inflammation period of 0-7 days post-intra-articular injection followed by progressive degeneration of the cartilage and subchondral bone from days 14-55. Efficacy studies with a compound described herein took place from day 14 onwards and were performed twice a week with at least three days of wash-out in between each assay. Three different assays can be used to measure pain. Tactile allodynia can be measured via von Frey assay, hind limb paw weight distribution can be monitored using an incapacitance tester (Columbus Instruments, Columbus, Ohio), and hind limb grip strength can be measured using a grip strength meter (Columbus Instruments, Columbus, Ohio). Briefly, the von Frey assay was performed using the standard up/down method with von Frey filaments. Hind paw weight distribution was determined by placing rats in a chamber so that each hind paw rested on a separate force plate of the incapacitance tester. The force exerted by each hind limb (measured in grams) was averaged over a three second period. Three measurements are taken for each rat, and the change in hind paw weight distribution was calculated. Peak hind limb grip force was conducted by recoding the maximum compressive force exerted on the hind limb mesh gauge set on the grip strength meter. During testing, each rat was restrained and the paw of the injected knee was allowed to grip the mesh. The animal was then pulled in an upward motion until their grip was broken. Each rat was tested three times, with the contralateral paw used as a control.
A baseline was established for animals prior to administration of compounds. The MIA-treated groups of rats were then dosed with either vehicle (PEG400, orally), test compound (at 3 mg/kg, 10 mg/kg, and 30 mg/kg, orally), or morphine (3 mg/kg, subcutaneously). The dosing volume was 500 μL. One hour after dosing, von Frey assay, hind limb weight distribution and/or hind limb grip analysis was performed to measure the efficacy of the test compounds.

[6] = Plasma concentration in the osteoarthritis pain model studies; assay type: in vivo, rat; details: for course of plasma concentration: during the pain model time course
[7] = target: T2, rat CB2 receptor; experiment: β-arrestin recruitment assay (PathHunter CHO-K1); assay type: cell-based; design: host or cells: PathHunter CHO-K1; details: relative to CP55,940
[8] = target: T1, hCB2; experiment: β-arrestin recruitment assay (PathHunter CHO-K1); assay type: cell-based; design: host or cells: PathHunter CHO-K1; details: relative to CP55,940
[9] = system: human CB2 receptors; experiment: CB2 receptor internalization assay (conventional fluorescence microscopy); assay type: cell-based
Experimental: as §1
[…]. On the day of the assay, growth media was removed from the cell plate and replaced with 25 μL pre-warmed RPMI media. Additionally, 25 μL of pre-warmed RPMI media containing a fluorescent nuclear stain (Hoescht 33342 dye (1:500 dilution); Catalog #H-1399, Invitrogen,) and fluorophore-labeled antibody (Alexa-488 anti-HA monoclonal antibody (1:50 dilution); Catalog #A-21287, Invitrogen, Waltham, Mass.) was added to the cell plate. Test compounds or CP55,940 dissolved in DMSO were serially diluted in DMSO and then further diluted in RPMI to achieve 3× concentrations in 0.5% DMSO. […] Fluorescence microscopy images were captured for each well on the plate (minimum of 6 per well). The internalization of anti-HA antibody-labeled CB2 receptors results in redistribution of fluorescence from the cell surface to intracellular endosomes, which appear as punctate fluorescent granules within the cell. Quantification of receptor internalization was performed by measuring the Alexa-488 anti-HA monoclonal antibody-stained intracellular granule fluorescence intensities normalized per cell number in each well. […]

T1 sequence (P34972 whole entry): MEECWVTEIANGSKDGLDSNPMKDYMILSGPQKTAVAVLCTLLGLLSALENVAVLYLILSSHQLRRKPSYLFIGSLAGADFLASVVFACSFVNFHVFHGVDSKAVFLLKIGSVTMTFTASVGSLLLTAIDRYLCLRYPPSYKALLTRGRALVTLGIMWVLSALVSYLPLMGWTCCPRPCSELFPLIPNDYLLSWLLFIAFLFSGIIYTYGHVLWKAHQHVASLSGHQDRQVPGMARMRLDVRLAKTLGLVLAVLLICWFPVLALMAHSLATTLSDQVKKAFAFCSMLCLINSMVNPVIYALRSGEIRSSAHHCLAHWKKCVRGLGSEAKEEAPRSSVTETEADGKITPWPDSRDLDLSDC

| SMILES | receptor internalization efficacy relative to CP55,940, rat CB2 [4] | in vivo efficacy over time in the osteoarthritis pain model [5] | course of plasma concentration [6] | time following dosing up to which in vivo efficacy was maintained [5] | other results |
| --- | --- | --- | --- | --- | --- |
| CCCCCCC(C)(C)c1cc(O)c(C2CC(=O)[C@H]3C[C@@H]2C3(C)C)c(OC(=O)/C=C/C(=O)O)c1 (some centres unmarked) [cannabinor] | – | – | – | – | agonist character at the CB2 receptor upon closer examination of the published data ([1]; Eur. Urol. 2010 FIG. 2b): only a partial agonist; agonist character at the human CB2 receptor as the publication suggests [1]: full agonist; selectivity for the CB2 receptor over the CB1 receptor (GTP-γS) [1]: 321 fold; pEC50 ([1]; read-out: potency in GTP-γS binding assays, CB2 receptor): 7.76; selectivity measured in radioligand binding assays [2]: approximately 10 fold; pEC50 [3]: 5.25 |
| CC(C)(CO)NC(=O)c1nn(-c2ccc(F)cc2F)c2c1C[C@H]1C[C@@H]21 [Compound 493] | 58% | rapid loss of in vivo efficacy | high plasma concentrations that did not decline significantly until four hours following dosing | – | receptor internalization [4]: low receptor internalization; time following dosing at which in vivo efficacy was lost [5]: two and four |
| CNC(=O)[C@@H](NC(=O)c1nn(-c2c[n+]([O-])ccn2)c2c1C[C@H]1C[C@@H]21)C(C)(C)C [Compound 704] | – | rapid loss of in vivo efficacy | increasing plasma concentrations | – | β-arrestin efficacy compared to CP55,940, rat CB2 [7]: 88%; time of peak efficacy following dosing [5]: one; β-arrestin efficacy compared to CP55,940, human CB2 [8]: 106% |
| CC(C)(NC(=O)c1nn(-c2c[n+]([O-])ccn2)c2c1C[C@@H]1C[C@H]21)C(F)(F)F [Compound 919] | 92% | sustained in vivo efficacy | rapidly declining plasma concentrations; also recorded: decreasing plasma concentrations | six | receptor internalization efficacy relative to CP55,940, human CB2 [9]: 95% |
| O=C(N[C@H](CO)C1CCOCC1)c1nn(-c2c[n+]([O-])ccn2)c2c1C[C@H]1C[C@@H]21 [Compound 841] | 105% | sustained in vivo efficacy | rapidly declining plasma concentrations; also recorded: decreasing plasma concentrations | four | receptor internalization [4]: high receptor internalization; time following dosing at which in vivo efficacy was lost [5]: six; concentration at 6 h ([6]; rat, plasma, oral, when efficacy was lost, read-out: plasma drug levels at the six hour timepoint): < 3 ng/mL |
| O=C(NC1(C(F)(F)F)CCC1)c1nn(-c2c[n+]([O-])ccn2)c2c1C[C@@H]1C[C@H]21 [Compound 765] | 99% | sustained in vivo efficacy | decreasing plasma concentrations | six | receptor internalization efficacy relative to CP55,940, human CB2 [9]: 97% |
| CC(CO)(CO)NC(=O)c1nn(-c2cc(C#N)ccn2)c2c1C[C@H]1C[C@@H]21 [Compound 820] | – | rapid loss of in vivo efficacy | high plasma concentrations | – | β-arrestin efficacy compared to CP55,940, rat CB2 [7]: 56%; time of peak efficacy following dosing [5]: one; β-arrestin efficacy compared to CP55,940, human CB2 [8]: 82% |
